The text below walks through data of PubChem BioAssay (NCI).

Common to all, as to assay: NCI anticancer screen, dose series, 48 h
In assay [1] the test system is 786-0 renal.
The test system of assay [2] is ACHN renal.
Assay [3] deals with DU-145 prostate.
Assay [4] deals with HOP-92 NSCLC.
The subject of assay [5] is NCI-H226 lung.
Assay [6] relates to OVCAR-5 ovarian.
The subject of assay [7] is OVCAR-8 ovarian.
The subject of assay [8] is HCC-2998 colon.
The subject of assay [9] is LOX IMVI melanoma.
Assay [10] relates to CCRF-CEM leukemia.

Values joined by “and” are separate entries in the source; they are usually repeats but may differ in a detail not shown here. Equal entries are not always repeated.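 48-hour exposure; five concentrations; linearly interpolated endpoints. GI50 is the concentration that inhibits growth by half. The concentration for full growth arrest is given as TGI.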

Consider `CCCCN1/C(=N/Nc2n[nH]c(=O)c3ccccc23)SCC1c1ccc(Cl)cc1` (configuration not stated), for which the TGI in assay [1] was 42.2 µM; in [2], greater than 100 µM; in [3], greater than 100 µM; in assay [4], greater than 100 µM; in assay [5], 27.5 µM; in assay [6], 61 µM. Besides, the TGI in [7] is greater than 100 µM.
Turning to `Nc1c(/C=C/c2cc3cc(C4=NCCN4)ccc3o2)[nH]c2cc(C3=NCCN3)ccc12`, the TGI in assay [1], in assay [2], in [3], in [8], in assay [4] and in [9] was greater than 100 µM each time. The TGI in assay [5], in assay [6] and in assay [7] was greater than 100 µM in each case.
As to `O=CC12CCCN1CCC2`, the TGI in [1], in assay [2], in assay [10], in assay [3], in assay [8] and in assay [9] was greater than 100 µM in each case. Moreover, the TGI in [5] and in assay [6] was greater than 100 µM in each case.
`O=C1Cc2c([nH]c3c(Br)cccc23)-c2ccccc2N1`: the TGI in assay [1] was greater than 100 µM; in [2], greater than 100 µM; in [10] it was 35.6 µM; in assay [3], greater than 100 µM; in [8] it was greater than 100 µM; in assay [9], greater than 100 µM. The TGI in [5], in [6] and in assay [7] was greater than 100 µM each time.
For the molecule `CN(C)c1ccc(/C=C2\CCCCCC2=O)cc1`, the TGI in [1], in assay [2], in assay [10], in [3], in assay [8] and in [6] was greater than 100 µM throughout. The molecule also registered a TGI in assay [7] greater than 100 µM.
Turning to `CCCCCCCCCCCC1=C(O)C(=O)C=C(O)C1=O`, the TGI in [10] came out at 36.7 µM; in [8], 33 µM; in [4], 11.7 µM; in assay [9], 38 µM; in [5] it was 15.4 µM; in assay [6], 24.3 µM. The TGI in assay [7] worked out at 4.7 µM.
Take `CCCCSC1=N/C(=C\c2ccccc2O)C(Cl)=N1`: the TGI in assay [1], in assay [2], in [3], in [8], in [4] and in assay [9] was greater than 100 µM each time. The TGI in [5], in assay [6] and in assay [7] was greater than 100 µM throughout.
For `COc1ccc(Sc2ccccc2[N+](=O)[O-])cc1`, the TGI was greater than 100 µM in assay [10]; 62.1 µM in assay [8]; greater than 100 µM in [4]; greater than 100 µM in assay [9]; 45.8 µM in assay [5]; greater than 100 µM in assay [6]. For the same molecule, the TGI in assay [7] was greater than 100 µM.
For the molecule `CCCCCCCCCCCCCCCC(=O)OCC(COP(=O)(O)OCCNC(=O)CCSSc1ccccn1)OC(=O)CCCCCCCCCCCCCCC` (configuration not stated), the TGI in assay [1], in assay [2], in [10], in assay [3], in assay [4] and in assay [5] was greater than 100 µM in each case. For the same molecule, the TGI in assay [6] and in assay [7] was greater than 100 µM throughout.
Turning to `Nc1nc(N)c2ncn(Cc3ccccc3)c2n1`, the TGI in assay [1], in assay [2], in assay [10], in [3], in assay [8] and in assay [4] was greater than 100 µM throughout. In addition, the TGI in assay [5], in assay [6] and in [7] was greater than 100 µM throughout.
In the case of `COc1cc(O)c2c(=O)c(O)c(-c3ccc(O)c(O)c3)oc2c1`, the TGI in assay [2] was 24.9 µM; in [10] it was 33 µM; in assay [3], 25.5 µM; in [8], 34.1 µM; in assay [4] it was 45.1 µM; in [9], 31.9 µM. Further, the TGI in assay [6] is 47.8 µM; in assay [7] it was 75.9 µM.
Consider `Nc1nc2c(ccc3ccccc32)[nH]1`, for which the TGI in assay [2], in assay [10], in [3], in assay [8], in [9] and in assay [5] was greater than 10 µM throughout. In addition, the TGI in assay [6] and in assay [7] was greater than 10 µM each time.
In the case of `O=C1C[C@@]23CCC4(CC2=CCC[C@H]3O1)OCCO4`, the TGI in [1], in [2], in assay [3], in assay [8], in assay [4] and in assay [9] was greater than 100 µM in each case. For the same molecule, the TGI in assay [5] and in assay [6] was greater than 100 µM in each case.
On to `Cn1c(=O)c(C#N)c(O)c2cc3ccccc3nc21`, for which the TGI in [2], in assay [10], in assay [8], in assay [4], in [9] and in assay [5] was greater than 100 µM each time. The molecule also returned a TGI in [7] greater than 100 µM.
For the molecule `COc1ccc2c(C=O)c3n(c(=O)c2c1OC)CCc1cc2c(cc1-3)OCO2`, the TGI in [1] is greater than 100 µM; in assay [2], greater than 100 µM; in assay [10] it was greater than 100 µM; in [3] it was greater than 100 µM; in assay [8], 94.1 µM; in assay [4], 88.5 µM. The TGI in assay [5], in [6] and in assay [7] was greater than 100 µM in each case.
`N=c1sc(N2CCOCC2)nn1CC(=O)c1ccccc1`: the TGI in assay [1], in [2], in assay [10], in assay [3], in [8] and in assay [5] was greater than 100 µM in each case. Besides, the TGI in assay [6] and in assay [7] was greater than 100 µM throughout.
As to `CSC(=NCCCN=C(NS(=O)(=O)c1ccc(Cl)cc1)SC)NS(=O)(=O)c1ccc(Cl)cc1`, the TGI in assay [1] was greater than 100 µM; in assay [2] it was greater than 100 µM; in assay [10], greater than 100 µM; in [3] it was greater than 100 µM; in [8] it was 83.6 µM; in assay [4], 67.9 µM. Besides, the figures for the TGI in assay [9], in [6] and in [7] were 70.6 µM, greater than 100 µM and greater than 100 µM, respectively.
Consider `CCN(CC)CCCNc1nnc(C)c2[nH]c3ccccc3c12`, for which the TGI is 94 µM in assay [1]; 59.9 µM in assay [2]; 63.9 µM in [10]; 59.9 µM in assay [3]; 22.2 µM in assay [8]; 55 µM in assay [4]. The TGI in [9] came to 30.9 µM; in assay [6], 61.3 µM; in assay [7], 42.3 µM.
For `FC(F)(Sc1nc2ccccc2[nH]1)c1nc2ccccc2o1`, the TGI in assay [1], in [2], in assay [10], in assay [3], in assay [8] and in assay [4] was greater than 100 µM each time. The TGI in assay [5], in assay [6] and in assay [7] was greater than 100 µM in each case.
For `NS(=O)(=O)c1cc2c(cc1Cl)NC(C(=O)NNC(=O)c1ccncc1)=NS2(=O)=O`, the TGI in [1], in assay [2], in assay [10], in assay [8], in assay [4] and in assay [9] was greater than 100 µM in each case. The TGI in [5] and in assay [7] was greater than 100 µM each time.
Turning to `Nn1c(=S)[nH]nc(/C=C/c2c(O)ccc3ccccc23)c1=O`, the TGI in [1] was greater than 100 µM; in [2] it was 51.7 µM; in assay [10], 9.7 µM; in assay [3], greater than 100 µM; in assay [8], 54.5 µM; in [9] it was 11.7 µM. For the same molecule, the TGI came to 42.5 µM in assay [6] and 4.81 µM in [7].
For `COc1ccc(OC)c2c(Nc3ccc(S(=O)(=O)O)c4cc(S(=O)(=O)O)cc(S(=O)(=O)O)c34)cc(C)nc12`, the TGI in assay [1], in assay [2], in [10], in [3], in assay [8] and in [9] was greater than 100 µM in each case. Further, the TGI in [5], in [6] and in [7] was greater than 100 µM in each case.
As to `Cc1c(N(Cc2ccccc2)Cc2ccccc2)nc(S(C)(=O)=O)nc1S(C)(=O)=O`, the TGI in [2] amounted to 16.4 µM; in [10] it was 5.15 µM; in [8], 3.2 µM; in assay [4], 8.4 µM; in [9] it was 3.24 µM; in assay [5], 25.8 µM. The TGI in [6] turned out to be 19.3 µM; in assay [7], 3.29 µM.
For the molecule `O=C(Nc1nc2ccc([N+](=O)[O-])cc2s1)c1cc([N+](=O)[O-])ccc1Cl`, the TGI was determined as 11.7 µM in assay [1]; 13.7 µM in assay [2]; 31 µM in assay [3]; 2.97 µM in assay [4]; 5.3 µM in [9]; 7.24 µM in assay [5]. The TGI was found to be 17 µM in assay [6] and 9.57 µM in assay [7].
`COC(=O)C1CCC(=S)N1C(C)=O` (configuration not stated): the TGI in assay [1], in assay [2], in assay [3], in assay [8], in assay [4] and in assay [6] was greater than 100 µM throughout. Also, in assay [7], the TGI was greater than 100 µM.
With `COc1ccc(-c2cc(-c3ccc(Nc4ccnc5cc(C(F)(F)F)ccc45)cc3)nc(N)c2C#N)c2ccccc12`, the TGI in assay [1], in [2], in [3], in [8], in assay [4] and in assay [9] was greater than 100 µM in each case. Further, in [6], the TGI is greater than 100 µM.
`COc1ccc(/[N+]([O-])=C/c2ccccc2OC(=S)S)cc1`: the TGI in [1] is 65.5 µM; in assay [2], greater than 100 µM; in assay [3], greater than 100 µM; in assay [8], greater than 100 µM; in assay [4], 64.4 µM; in assay [9] it was 52.7 µM. In addition, the TGI in [5] was greater than 100 µM; in [6] it was greater than 100 µM; in assay [7], 45 µM.
`Nc1nc2c(c(-c3ccc(F)cc3)n1)COC/C2=C\c1ccc(F)cc1`: the TGI in [2], in assay [10], in assay [3], in [8], in assay [4] and in assay [5] was greater than 100 µM throughout. Besides, the TGI in assay [6] and in assay [7] was greater than 100 µM in each case.
For the molecule `N/N=C(\N)SCc1ccc(N=C=S)cc1`, the TGI in assay [1], in [2], in [10], in assay [3], in assay [8] and in assay [4] was greater than 100 µM in each case. In addition, the TGI in assay [9], in [6] and in [7] was greater than 100 µM throughout.
On to `Cc1ccc(C)c(C(=O)CC2OC(O)C(Cl)C2Cl)c1` (configuration not stated), for which the TGI was greater than 100 µM in assay [2]; greater than 100 µM in [10]; greater than 100 µM in [8]; 77.3 µM in assay [4]; 48.4 µM in assay [9]; greater than 100 µM in [5]. In addition, the figures for the TGI in assay [6] and in [7] were greater than 100 µM and 33.6 µM, respectively.
In the case of `O=P1(C(O)c2ccccc2)N(Cc2ccccc2)[C@@H]2CCCC[C@H]2N1Cc1ccccc1` (some centres not stated), the TGI in assay [1] was 47.9 µM; in assay [2], greater than 100 µM; in [10], greater than 100 µM; in assay [3], greater than 100 µM; in assay [8], 50.4 µM; in assay [9], 32.1 µM. The TGI in assay [5] is 64.7 µM; in [6] it was 76.8 µM; in assay [7], greater than 100 µM.
As to `COC1=C(C)C(=O)C2=C(C1=O)C1C3CC4=C(C(=O)C(OC)=C(C)C4=O)C(CNC(=O)C(C)=O)N3C(C#N)C(C2)N1C` (configuration not stated), the GI50 was 0.00366 µM in [2], 0.0033 µM in [3], 0.000219 µM in assay [8] and 0.0147 nM in assay [9]. For the same molecule, the TGI is 1.16 µM and 1.23 µM in assay [2]; 0.0862 µM in assay [3]; 0.00425 µM and 0.0162 µM in assay [4]; 8.74e-05 µM and < 0.0251 µM and < 0.0105 µM in assay [9]; 0.0768 µM and 0.0776 µM in [6].
